Data: patent publication EP0195316A1, “Quinolonecarboxylic acid derivatives” (KYORIN PHARMACEUTICAL CO., LTD., priority 1985, dated 1986)
≈ marks a conversion by molar mass, not a printed value. Like-named read-outs stand apart in the source and are kept apart here.

Legend:
[1] = system: MR-S. aureus; experiment: MIC, in vitro antibacterial activity (clinical isolates); format: cell-based; conditions: Staphylococcus aureus, No. of strains 46
[2] = system: B. fragilis 0558; experiment: MIC, in vitro antibacterial activity (standard strains); format: cell-based; conditions: Bacteroides fragilis; B. fragilis 0558, 10^6 cells/ml, Gram -
[3] = system: E. cloacae IID 977; format: cell-based
[4] = system: S. marcescens GN 7577; format: cell-based
[5] = system: Bacillus subtilis PCI 219; experiment: MIC, in vitro antibacterial activity (standard strains); format: cell-based; conditions: PCI219; Bacillus subtilis PCI 219, 10^6 cells/ml, Gram +
[6] = system: Bacteroides sp.; experiment: MIC, in vitro antibacterial activity (clinical isolates); format: cell-based; conditions: No. of strains 17
[7] = system: Enterobacter cloacae IID 977; experiment: MIC, in vitro antibacterial activity (standard strains); format: cell-based; conditions: IID977; Enterobacter cloacae IID 977, 10^6 cells/ml, Gram -
[8] = system: H. influenzae; experiment: MIC, in vitro antibacterial activity (clinical isolates); format: cell-based; conditions: Haemophilus influenzae, No. of strains 26
[9] = system: P. aeruginosa IFO 12689; experiment: MIC, in vitro antibacterial activity (standard strains); format: cell-based; conditions: Pseudomonas aeruginosa, IFO12689; P. aeruginosa IFO 12689, 10^6 cells/ml, Gram -
[10] = system: E. coli; experiment: MIC, in vitro antibacterial activity (clinical isolates); format: cell-based; conditions: Escherichia coli, No. of strains 25
Experimental: (§1) Minimal inhibitory concentrations (MICs) were determined in accordance with the method recommended by Japan Society of Chemotherapy.

[11] = system: S. aureus; experiment: as above; format: cell-based; conditions: Staphylococcus aureus, No. of strains 21
Experimental: as §1

[12] = system: P. aeruginosa IFO 12689; format: cell-based
[13] = system: S. marcescens IID 618; format: cell-based
[14] = system: B. fragilis 25285; experiment: MIC, in vitro antibacterial activity (standard strains); format: cell-based; conditions: Bacteroides fragilis; B. fragilis 25285, 10^6 cells/ml, Gram -
[15] = system: C. ramosum; experiment: as above; format: cell-based; conditions: Thomasclavelia ramosa, 10^6 cells/ml, Gram +
[16] = system: Bacteroides fragilis GM 7000; experiment: as above; format: cell-based; conditions: GM7000; Bacteroides fragilis GM 7000, 10^6 cells/ml, Gram -
[17] = system: P. aeruginosa; experiment: MIC, in vitro antibacterial activity (clinical isolates); format: cell-based; conditions: Pseudomonas aeruginosa; clinical isolates P. aeruginosa, No. of strains 27; read-out: MIC
[18] = system: Alcaligenes sp.; experiment: as above; format: cell-based; conditions: No. of strains 9
[19] = system: B. catarrhalis; experiment: as above; format: cell-based; conditions: Moraxella catarrhalis; clinical isolates B. catarrhalis, No. of strains 21; read-out: MIC
[20] = system: Veillonella parvula KYA 10790; experiment: MIC, in vitro antibacterial activity (standard strains); format: cell-based; conditions: KYA10790; Veillonella parvula KYA 10790, 10^6 cells/ml, Gram -
[21] = system: B. fragilis 8503; experiment: as above; format: cell-based; conditions: Bacteroides fragilis; B. fragilis 8503, 10^6 cells/ml, Gram -
[22] = system: Salmonella enteritidis IID 604; experiment: as above; format: cell-based; conditions: Salmonella enterica
[23] = system: K. pneumoniae 1-220S; experiment: as above; format: cell-based; conditions: Klebsiella pneumoniae, 1220S; K. pneumoniae 1-220S, 10^6 cells/ml, Gram -; read-out: MIC
[24] = system: Yersinia enterocolitica IID 981; experiment: as above; format: cell-based; conditions: IID981; Yersinia enterocolitica IID 981, 10^6 cells/ml, Gram -
[25] = system: S. pneumoniae; experiment: MIC, in vitro antibacterial activity (clinical isolates); format: cell-based; conditions: Streptococcus pneumoniae; clinical isolates S. pneumoniae, No. of strains 6; read-out: MIC
[26] = system: E. cloacae; experiment: as above; format: cell-based; conditions: Enterobacter cloacae
[27] = system: Bacteroides fragilis 2; experiment: Experimental local infection with anaerobic bacteria in granuloma pouches in rats; format: in vivo; conditions: 25 mg/kg, p.o., pouch exudate, Mean ± S.D. (n=3)
Experimental: Under ether anesthesia, male Wistar rats (7 weeks old) were injected subcutaneously on the back with 20 ml of germ-free air (sterilized by membrane filtration, 0.45 µm pore size) by means of a syringe. Continuously, an inflammatory reaction was induced by injecting one ml of sterile croton oil solution (1 % in olive oil) into the formed air pouch. After 2 days, the air was removed. On the eighth day, 0.5 ml of Bacteroides fragilis 2 culture (10^6 CFU/ml) were injected into bore granuloma pouches. Each compound was administered orally or subcutaneously at 2 hours after infection. […] During experiment, intake of food and water was free. It was known that the activity of the existing quinolonecarboxylic acid compounds against obligate anaerobic bacteria was very weak. […] This property is also one of excellent characters of the present comound.

[28] = system: Pst. microns UPI 5464-1; experiment: MIC, in vitro antibacterial activity (standard strains); format: cell-based; conditions: Pst. microns UPI 5464-1, 10^6 cells/ml, Gram +
[29] = system: S. epidermidis IID 866; experiment: as above; format: cell-based; conditions: Staphylococcus epidermidis, IID866; S. epidermidis IID 866, 10^6 cells/ml, Gram +
[30] = system: P. mirabilis IID 994; experiment: as above; format: cell-based; conditions: Proteus mirabilis, IID994
[31] = system: Peptococcus magnus KY 017; experiment: as above; format: cell-based; conditions: Finegoldia magna, KY017; Peptococcus magnus KY 017, 10^6 cells/ml, Gram +
[32] = system: Alcaligenes faecalis 0104002; experiment: as above; format: cell-based; conditions: Alcaligenes faecalis 0104002, 10^6 cells/ml, Gram -; read-out: MIC
[33] = E. cloacae IID 977, Conc. of Drugs 2MIC
[34] = E. cloacae IID 977, Conc. of Drugs 4MIC
[35] = S. marcescens GN 7577, Conc. of Drugs 4MIC
[36] = S. marcescens GN 7577, Conc. of Drugs 8MIC
[37] = P. aeruginosa IFO 12689, Conc. of Drugs 2MIC
[38] = P. aeruginosa IFO 12689, Conc. of Drugs 4MIC
[39] = S. marcescens IID 618, Conc. of Drugs 2MIC
[40] = S. marcescens IID 618, Conc. of Drugs 4MIC

In the case of CC1CN(c2c(F)cc3c(=O)c(C(=O)O)cn(C4CC4)c3c2Cl)CCN1 (stereo not drawn) [Ref.2, 8-Chloro-1-cyclopropyl-6-fluoro-1,4-dihydro-7-(3-methyl-1-piperazinyl)-4-oxo-3-quinolinecarboxylic acid], the MIC [1] is reported as 0.39 µg/mL (≈ 1.03 µM), the MIC [2] is reported as 0.39 µg/mL (≈ 1.03 µM) and the “Frequency of spontaneous resistant mutants” value (“Frequency” below) [3, 33] is reported as 3.1 × 10^-7. For the same compound, the “Frequency” value [3, 34] was <6.7 × 10^-10, the “Frequency” value [4, 35] was 9.9 × 10^-7 and the “Frequency” value [4, 36] was 2.1 × 10^-9. For the same compound, the MIC [5] was 0.025 µg/mL, the MIC [6] was 0.39 µg/mL (≈ 1.03 µM) and the MIC [7] was 0.05 µg/mL (≈ 0.132 µM). For the same compound, the MIC [8] was 0.025 µg/mL (≈ 0.0658 µM), the MIC [9] was 1.56 µg/mL (≈ 4.11 µM) and the MIC [10] was 0.025 µg/mL (≈ 0.0658 µM). The MIC [11] was 0.1 µg/mL (≈ 0.263 µM), the “Frequency” value [12, 37] was 5.5 × 10^-7 and the “Frequency” value [12, 38] was <6.3 × 10^-10. For the same compound, the “Frequency” value [13, 39] was 1.0 × 10^-7, the “Frequency” value [13, 40] was <1.0 × 10^-9 and the MIC [14] was 0.39 µg/mL (≈ 1.03 µM). It also gave an MIC [15] of 3.13 µg/mL, an MIC [16] of 0.39 µg/mL (≈ 1.03 µM) and an MIC [17] of 1.56 µg/mL (≈ 4.11 µM). For the same compound, the MIC [18] was 6.25 µg/mL (≈ 16.5 µM), the MIC [19] was 0.05 µg/mL (≈ 0.132 µM) and the MIC [20] was 0.2 µg/mL (≈ 0.527 µM). It also gave an MIC [21] of 0.78 µg/mL (≈ 2.05 µM), an MIC ([22]; Salmonella enteritidis IID 604, 10^6 cells/ml, Gram -, read-out: MIC) of 0.05 µg/mL (≈ 0.132 µM) and an MIC [23] of 0.05 µg/mL (≈ 0.132 µM). The MIC [24] was 0.05 µg/mL (≈ 0.132 µM), the MIC [25] was 0.78 µg/mL (≈ 2.05 µM) and the MIC [26] was 0.05 µg/mL (≈ 0.132 µM). For the same compound, the “Viable cells count (log) / ml” value ([27]; 6 hr) was 5.1 ± 0.21 (log) / ml, the “Viable cells count (log) / ml” value ([27]; 24 hr) was 4.5 ± 0.55 (log) / ml and the MIC [28] was 0.2 µg/mL. It also gave an MIC [29] of 0.1 µg/mL, an MIC [30] of 0.0125 µg/mL (≈ 0.0329 µM) and an MIC [31] of 0.2 µg/mL. For the same compound, the MIC [32] was 0.2 µg/mL (≈ 0.527 µM).

For NC1CCN(c2c(F)cc3c(=O)c(C(=O)O)cn(C4CC4)c3c2Cl)C1 (stereo not drawn) [Example 25, 7-(3-Amino-l-pyrrolidinyl)-8-chloro-l-cyclopropyl-6-fluoro-1,4-dihydro-4-oxo-3-quinolinecarboxylic acid], the MIC [1] was 0.1 µg/mL (≈ 0.273 µM), the MIC [2] was 0.1 µg/mL (≈ 0.273 µM) and the “Frequency” value [3, 33] was 6.7 × 10^-10. The “Frequency” value [3, 34] was <6.7 × 10^-10, the “Frequency” value ([4]; S. marcescens GN 7577, Conc. of Drugs 2MIC) was 2.3 × 10^-7 and the “Frequency” value [4, 35] was <5.3 × 10^-10. For the same compound, the “Frequency” value [4, 36] was <5.3 × 10^-10, the MIC [5] was 0.025 µg/mL and the MIC [6] was 0.1 µg/mL (≈ 0.273 µM). For the same compound, the MIC [7] was 0.05 µg/mL (≈ 0.137 µM), the MIC [8] was 0.013 µg/mL (≈ 0.0355 µM) and the MIC [9] was 0.2 µg/mL (≈ 0.547 µM). For the same compound, the MIC [10] was 0.013 µg/mL (≈ 0.0355 µM), the MIC [11] was 0.05 µg/mL (≈ 0.137 µM) and the “Frequency” value [12, 37] was 4.5 × 10^-8. For the same compound, the “Frequency” value [12, 38] was <6.3 × 10^-10, the “Frequency” value [13, 39] was 1.5 × 10^-8 and the “Frequency” value [13, 40] was <1.0 × 10^-9. It also gave an MIC [14] of 0.1 µg/mL (≈ 0.273 µM), an MIC [15] of 0.78 µg/mL and an MIC [16] of 0.1 µg/mL (≈ 0.273 µM). The MIC [17] was 0.2 µg/mL (≈ 0.547 µM), the MIC [18] was 0.78 µg/mL (≈ 2.13 µM) and the MIC [19] was 0.05 µg/mL (≈ 0.137 µM). For the same compound, the MIC [20] was 0.05 µg/mL (≈ 0.137 µM), the MIC [21] was 0.39 µg/mL (≈ 1.07 µM) and the MIC [22] was 0.0125 µg/mL (≈ 0.0342 µM). The MIC [23] was 0.05 µg/mL (≈ 0.137 µM), the MIC [24] was 0.025 µg/mL (≈ 0.0683 µM) and the MIC [25] was 0.1 µg/mL (≈ 0.273 µM). For the same compound, the MIC [26] was 0.013 µg/mL (≈ 0.0355 µM), the “Viable cells count (log) / ml” value ([27]; 6 hr) was 4.6 ± 0.31 (log) / ml and the “Viable cells count (log) / ml” value ([27]; 24 hr) was 4.5 ± 0.15 (log) / ml. The MIC [28] was 0.05 µg/mL, the MIC [29] was 0.05 µg/mL and the MIC [30] was 0.0125 µg/mL (≈ 0.0342 µM). For the same compound, the MIC [31] was 0.05 µg/mL and the MIC [32] was 0.05 µg/mL (≈ 0.137 µM).
